Experimental data as given in US6046289A, “Propenamide derivatives containing Arg-Gly-Asp polymers obtained therefrom” (priority 1990, dated 2000).

Test system: human plasma rich in platelet
Assay: Platelet coagulation-inhibitory activity in vitro (aggregometer, ADP or collagen stimulation)
Type: cell-based
Method: The platelet coagulation-inhibitory effect of the compounds of the present invention was assayed, in vitro, using human plasma rich in platelet. The experimental method will be described below.
To fresh human blood, there was added 1/9 volume of a 3.8% sodium citrate solution, the resulting mixture was centrifuged (1000 rpm; for 10 minutes) and the upper layer was separated as a plasma rich in platelet. The propenamide derivatives, the polymers thereof, the copolymers thereof or salts thereof obtained through lyophilization were dissolved in physiological saline to give a plurality of solutions having various concentrations ranging from 0 to 1.5 mg/ml. Each of the solutions (25 μl) was added to 200 μl of the plasma, incubated at 37° C. for 3 minutes, then a 50 μM of ADP (adenosine diphosphate) solution or a 200 μg/ml collagen solution was added to determine the extent of coagulation in terms of transmittance determined by an aggregometer.
Rate of Coagulation Inhibition=(1-T/T0)×100%
T0 : Transmittance observed when the propenamide derivatives, the polymers thereof, the copolymers thereof or salts thereof were not added.
T: Transmittance observed when the propenamide derivatives, the polymers thereof, the copolymers thereof or salts thereof were added.

Platelet Coagulation-Inhibitory Activity IC50 ADP Stimulation (ADP Stimulation): C (more than 80)
Platelet Coagulation-Inhibitory Activity IC50 Collagen Stimulation (Collagen Stimulation): C (more than 80)
Substance: trimethylammonioethyl methacrylamide [Preparation product 14]
